According to patent US10010504B2, “Compositions and methods including celecoxib and plumbagin relating to treatment of cancer” (The Penn State Research Foundation, priority 2013, dated 2018):

Test system: UACC 903 melanoma cells
Test: Thermal stability in DMSO at 60° C., efficacy by MTS assay
Conditions: DMSO solution

| SMILES | effect of prolonged exposure to 60° C. on compound activity | heating time acceptable without decreasing efficacy [min] |
| --- | --- | --- |
| CC1=CC(=O)c2c(O)cccc2C1=O [plumbagin, 5-hydroxy-2-methyl-1,4-napthoquinone] | did not affect compound activity |  |
| Cc1ccc(-c2cc(C(F)(F)F)nn2-c2ccc(S(N)(=O)=O)cc2)cc1 [celecoxib, 4-[5-(4-Methylphenyl)-3-(trifluoromethyl)-1H-pyrazol-1-yl]benzenesulfonamide] |  | ≤ 20 |
